Test results published in the supplement of paper PMC10307832.

Columns and labels:
Test in all cases: relative viability (nuclei count vs DMSO), 5 days (fraction); higher = more cells survive
[1] = compound: CN(c1ncccc1CNc1nc(Nc2ccc3c(c2)CC(=O)N3)ncc1C(F)(F)F)S(C)(=O)=O + Cc1nc(Nc2ncc(C(=O)Nc3c(C)cccc3Cl)s2)cc(N2CCN(CCO)CC2)n1 [Dasatinib] (partner 0.075 µM)
Summary of the method: (§1)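 Relative viability is defined as nuclei in treated wells over nuclei in vehicle wells. Duplicate plates were run and medians reported. Lung cancer cell lines in 1536-well plates were dosed by pin tool one day after seeding, with one drug or with a fixed anchor-drug dose plus five library-drug doses (not always all listed) in √10 steps, and nuclei were counted after 5 days.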

[2] = compound: CN(c1ncccc1CNc1nc(Nc2ccc3c(c2)CC(=O)N3)ncc1C(F)(F)F)S(C)(=O)=O + Nc1nc2[nH]cc(CCc3ccc(C(=O)N[C@@H](CCC(=O)O)C(=O)O)cc3)c2c(=O)[nH]1 [Pemetrexed] (partner 0.2 µM)
Summary of the method: as §1

[3] = compound: CN(c1ncccc1CNc1nc(Nc2ccc3c(c2)CC(=O)N3)ncc1C(F)(F)F)S(C)(=O)=O + CC(=O)c1c(C)c2cnc(Nc3ccc(N4CCNCC4)cn3)nc2n(C2CCCC2)c1=O [Palbociclib] (partner 0.5 µM)
Summary of the method: as §1

[4] = compound: CN(c1ncccc1CNc1nc(Nc2ccc3c(c2)CC(=O)N3)ncc1C(F)(F)F)S(C)(=O)=O + O=C(CCCCCCC(=O)Nc1ccccc1)NO [Vorinostat] (partner 1 µM)
Summary of the method: as §1

Cell Line | relative viability ([1]; first compound 0.01 µM) | relative viability ([1]; first compound 0.03162 µM) | relative viability ([1]; first compound 0.1 µM) | relative viability ([1]; first compound 0.3162 µM) | relative viability ([1]; first compound 1 µM) | relative viability ([2]; first compound 0.01 µM) | relative viability ([2]; first compound 0.1 µM) | relative viability ([2]; first compound 0.3162 µM) | relative viability ([2]; first compound 1 µM) | relative viability ([3]; first compound 0.01 µM) | relative viability ([3]; first compound 0.1 µM) | relative viability ([3]; first compound 0.3162 µM) | relative viability ([3]; first compound 1 µM) | relative viability ([4]; first compound 0.01 µM) | relative viability ([4]; first compound 0.1 µM) | relative viability ([4]; first compound 0.3162 µM) | relative viability ([4]; first compound 1 µM) | relative viability ([2]; first compound 0.03162 µM) | relative viability ([3]; first compound 0.03162 µM) | relative viability ([4]; first compound 0.03162 µM)
PC-3 [JPC-3] | 0.988 | 0.949 | 0.892 | 0.911 | 0.953 | 1.02 | 1.13 | 1.07 | 1.18 | 0.606 | 0.529 | 0.453 | 0.455 | 0.826 | 0.775 | 0.795 | 0.753 |  |  | 
PC-14 | 0.211 | 0.191 | 0.14 | 0.211 | 0.158 | 0.162 | 0.134 | 0.128 | 0.134 | 0.543 | 0.526 | 0.515 | 0.364 | 0.75 | 0.692 | 0.811 | 0.653 | 0.135 | 0.635 | 0.764
RERF-LC-KJ | 0.767 | 0.809 | 0.708 | 0.723 | 0.743 | 0.428 | 0.496 | 0.515 | 0.575 | 1.17 | 1.09 | 1.03 | 1.02 | 0.643 | 0.692 | 0.728 | 0.603 | 0.355 | 1.15 | 0.78
SK-LU-1 | 0.198 | 0.176 | 0.157 | 0.162 | 0.124 | 1.04 | 0.954 | 1 | 0.88 | 0.405 | 0.398 | 0.401 | 0.369 | 0.6 | 0.722 | 0.711 | 0.594 | 0.903 | 0.358 | 0.693
SK-MES-1 | 0.236 | 0.262 | 0.132 | 0.171 | 0.163 | 0.968 | 0.882 | 0.904 | 0.762 | 0.286 | 0.304 | 0.296 | 0.294 | 1.1 | 1.09 | 1.08 | 0.951 | 0.894 | 0.298 | 1.13
SW 900 | 0.559 | 0.613 | 0.477 | 0.456 | 0.403 | 0.49 | 0.477 | 0.484 | 0.51 | 0.513 | 0.52 | 0.52 | 0.456 | 0.535 | 0.594 | 0.661 | 0.562 | 0.459 | 0.48 | 0.511
SW 1573 | 0.428 | 0.453 | 0.406 | 0.383 | 0.273 | 0.869 | 0.826 | 0.934 | 0.837 | 0.482 | 0.346 | 0.31 | 0.35 | 0.832 | 0.696 | 0.992 | 0.588 | 0.928 | 0.399 | 1.11
UMC-11 | 0.449 | 0.531 | 0.41 | 0.426 | 0.379 | 0.743 | 0.82 | 0.799 | 0.687 | 0.316 | 0.394 | 0.317 | 0.34 | 0.417 | 0.314 | 0.331 | 0.229 | 0.831 | 0.346 | 0.363
